Laboratory results: patent US11661398B2, “Cellular transport system for transferring a sulfonic acid construct carrying a cargo into the cytoplasm of a cell” (Scientist of Fortune, S.A., priority 2017, dated 2023)
Entries after “also recorded” stand apart in the source; their conditions may differ.

Assays:
[1] = biological target: T1, PnGGT* (Pseudomonas nitroreducens, UniProt E0D5C2, D405N); assay: Sulfobutanoyl-L-leucine hydrolysis kinetics coupled to branched-chain amino acid kit; assay type: biochemical; settings: 50 mM Tris/HCl (pH 7.0)
T1 sequence (E0D5C2 25-556 D405N limits assumed): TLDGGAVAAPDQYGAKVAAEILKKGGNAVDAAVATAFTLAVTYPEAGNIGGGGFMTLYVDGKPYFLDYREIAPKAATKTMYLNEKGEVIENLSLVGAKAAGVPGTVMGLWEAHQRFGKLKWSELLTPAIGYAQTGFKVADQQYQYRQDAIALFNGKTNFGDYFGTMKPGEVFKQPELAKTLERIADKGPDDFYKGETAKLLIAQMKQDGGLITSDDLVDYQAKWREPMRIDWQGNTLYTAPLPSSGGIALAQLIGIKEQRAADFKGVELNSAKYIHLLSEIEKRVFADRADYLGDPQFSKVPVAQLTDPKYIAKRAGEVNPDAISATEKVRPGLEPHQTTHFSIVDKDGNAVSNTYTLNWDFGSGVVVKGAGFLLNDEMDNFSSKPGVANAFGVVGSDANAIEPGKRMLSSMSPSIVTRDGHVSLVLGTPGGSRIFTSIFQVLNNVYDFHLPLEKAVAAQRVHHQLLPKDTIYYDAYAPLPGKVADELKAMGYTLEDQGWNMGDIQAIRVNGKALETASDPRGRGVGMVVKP
Description: (§1) FIG. 32. […] Due to the unknown composition of the kit, absolute quantification of leucine was not possible and the results relating to reaction rates are plotted as changes in absorbance over time. […] (b) Kinetics of PnGGT* P505T were determined with the same substrate concentrations and buffer as for PnGGT*. […] Fitting of the kinetic data was performed with SigmaPlot v.12.2. Dots represent the average of three independent measurements with standard deviations shown as error bars.
(§2) For that, 50 μL of the BCAA reaction mix containing 46 μL BCAA assay buffer, 2 μL BCAA enzyme mix and 2 μL WST substrate mix were pre-incubated with 35 μL BCAA assay buffer and 5 μL purified PnGGT* (final concentration approximately 0.05 mg mL-1) at 37° C. […] The reaction rate of PnGGT* variants was determined as the specific difference in absorption over time (ΔA (450 nm) per minute per mg of purified protein).

[2] = test system: PnGGT* D385Y; assay: as above; assay type: biochemical, Pseudomonas nitroreducens; settings: 50 mM Tris/HCl (pH 7.0), 10-1000 μM substrate
Description: as §1, §2

[3] = test system: PnGGT* P505T; assay: as above; assay type: biochemical, Pseudomonas nitroreducens; settings: 50 mM Tris/HCl (pH 7.0)
Description: as §1, §2

[4] = test system: BW25113 ΔleuB (TK080); assay: Growth on different sulfur sources; assay type: cell-based, E. coli; settings: 1 mM sulfur source, minimal medium, 0.5% glucose, 0.4 mM leucine
Description: FIG. 21: Growth of E. coli on sulfonates. Strains TK080 (a; BW25113 ΔleuB) and TK082 (b; BW25113 ΔleuB ΔssuEADCB ΔtauD) were grown in MS minimal medium supplemented with 0.5% glucose, 0.4 mM L-leucine, 1 mM MgCl2 and 1 mM of a sulfur source. TK080 was able to use the majority of the tested sulfur sources with a similar efficiency as sulfate. […] Dots represent the average of three independent measurements with standard deviations shown as error bars.
(§3) For the experiments relating to the sulfonate based synthetic transport system, unless stated otherwise, growth experiments in selective medium were carried out in sulfur free MS minimal medium (4 mM citric acid, 1 mM MgCl2, 20 mM NH4Cl, 50 mM KH2PO4 and 1×NTA mix (10 μM nitrilotriacetic acid, 3 μM CaCl2, 3 μM FeCl3, 1 μM MnCl2, 0.3 μM ZnCl2, 0.3 μM H3B3, 0.3 μM CrC3, 0.3 μM COCl2, 0.3 μM CuCl2, 0.3 μM Ni2C, 0.3 μM Na2MoO4, 0.3 μM Na2SeO3)) supplemented with 0.5% glucose. MgSO4 (1 mM), MgCl2 (1 mM), L-leucine (0.4 mM), IPTG (0.5 mM), aTc (100 ng mL-1), nicotinic acid (various concentrations), 3-picolylamine (various concentrations) and sulfonates (various concentrations) as indicated in the text. […] Synthesis schemes for sulfobutanoyl-p-nitroanilide and other sulfonates are given below.
The sulfonate transporters SsuABC and TauABC transport a wide variety of sulfonate compounds (Eichhorn et al., 2000) and can thus be exploited for the present synthetic transport system. As such, the uptake and utilization of sulfobutanoyl-L-leucine was assessed. The leucine auxotrophic strain BW25113 ΔleuB was tested for growth in minimal medium supplemented with 0.5% glucose, 0.4 mM leucine, 0.4 mM isoleucine and 1 mM of a sulfur-containing compound as the sole sulfur source.

[5] = test system: BW25113 ΔleuB; assay: Intracellular release of leucine from sulfobutanoyl-L-leucine, growth on plates; assay type: cell-based, E. coli; settings: 2 mM compound, 0.5 mM taurine
Description: as §3
It was then tested if sulfobutanoyl-L-leucine can also be hydrolyzed intracellularly by GGT*. Strains BW25113 ΔleuB or BW25113 ΔleuB ΔssuD were transformed either with the empty vector pACT3 or the expression plasmids pACT3/EcGGT_ΔN24_D433N and pACT3/PnGGT_ΔN24_D405N. […] Taurine is taken up exclusively via TauABC and solely desulfonated by TauD. Addition of an excess of taurine should therefore not lead to competition with sulfobutanoyl-L-leucine for the SsuABC transporter and prevent TauD from using sulfobutanoyl-L-leucine as substrate, ensuring that the majority of sulfobutanoyl-L-leucine is hydroluzed by GGT*.

[6] = test system: TK082[pSsuABC]; assay: Growth of leucine auxotrophic strain in liquid medium; assay type: cell-based, E. coli; settings: liquid MS minimal medium, 0.25 mM compound, pACT3 versus pPnGGT*
[7] = biological target: T2, PnGGT ΔN24 (Pseudomonas nitroreducens, UniProt E0D5C2); assay: Kinetic measurements with purified PnGGT ΔN24; assay type: biochemical; settings: purified enzyme, 50 mM Tris-HCl (pH 9.0)
Description: (§4) For the experiments relating to the sulfonate based synthetic transport system, purification of PnGGT ΔN24 and PnGGT ΔN24 D405N containing an N-terminal 6×His-tag was performed according to previous reports (Van Dyke et al., 1992) using Ni-NTA Superflow (Qiagen, Hilden, Germany). For kinetic studies, PnGGT variants were purified with the aid of the 6×His-tag located at the N-terminal end of the large subunit following the same procedure. To exchange the buffer, purified proteins were dialyzed against 50 mM Tris/HCl (pH 7.0).
(§5) To determine the kinetic parameters of PnGGT ΔN24 and PnGGT ΔN24 D405N the purified enzymes were preincubated in 50 mM Tris-HCl (pH 9.0). To start the reaction, varying concentrations of the substrates L-glutamic acid γ-(3-carboxy-4-nitroanilide) or sulfobutanoyl-p-nitroanilide were added to the mixtures. The results were evaluated using GraphPad Prism (GraphPad Software, La Jolla, Calif., USA).

[8] = biological target: T3, PnGGT ΔN24 D405N (Pseudomonas nitroreducens, UniProt E0D5C2, D405N); assay: Kinetic measurements with purified PnGGT ΔN24 D405N; assay type: biochemical; settings: purified enzyme, 50 mM Tris-HCl (pH 9.0)
T3 sequence (E0D5C2 with tags, fused parts or gaps D405N): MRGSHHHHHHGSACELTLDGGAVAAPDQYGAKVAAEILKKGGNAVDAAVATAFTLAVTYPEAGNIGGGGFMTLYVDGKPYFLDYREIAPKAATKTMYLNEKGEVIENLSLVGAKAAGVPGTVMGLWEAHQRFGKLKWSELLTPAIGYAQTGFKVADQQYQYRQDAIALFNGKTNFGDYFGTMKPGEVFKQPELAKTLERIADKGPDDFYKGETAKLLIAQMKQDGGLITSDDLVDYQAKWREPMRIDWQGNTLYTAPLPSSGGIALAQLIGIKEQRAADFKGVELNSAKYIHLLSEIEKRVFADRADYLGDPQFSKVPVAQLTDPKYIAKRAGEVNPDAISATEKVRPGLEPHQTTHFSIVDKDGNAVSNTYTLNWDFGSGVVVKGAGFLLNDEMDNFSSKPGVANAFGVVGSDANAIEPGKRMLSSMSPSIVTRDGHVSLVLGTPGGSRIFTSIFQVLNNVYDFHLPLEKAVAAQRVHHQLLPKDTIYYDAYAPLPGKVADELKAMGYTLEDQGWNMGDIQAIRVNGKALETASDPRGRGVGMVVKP
Description: as §4, §5

[9] = biological target: T4, EcGGT ΔN24 (Escherichia coli, UniProt P18956); assay: Colorimetric GGT assay in whole cell lysates; assay type: biochemical, E. coli; settings: whole cell lysate, 4 mM substrate, 50 mM Tris-HCl (pH 9.0), 410 nm
T4 construct: made in house; host or cells: E. coli (pACT3 plasmid, IPTG induction)
Text: (§6) To test for the desired activity a colorimetric enzyme assay was chosen and the substrate sulfobutanoyl-p-nitroanilide was synthesized for this purpose. Hydrolysis of this colorless substrate by a GGT variant into sulfobutanoic acid and the yellow dye 4-nitroaniline can be quantified photometrically at 410 nm. For that, cytoplasmic GGT variants containing an N-terminal 6×His-tag were first expressed from E. coli (EcGGT ΔN24) and Pseudomonas nitroreducens (PnGGT ΔN24), as well as EcGGT ΔN24 D433N and the corresponding mutant variant PnGGT ΔN24 D405N. Position D405 of PnGGT was identified to fulfill the same function as position D433 of EcGGT by sequence alignment and homology modeling between EcGGT and PnGGT. Then the ability of whole cell lysates containing the respective enzymes was tested to hydrolyze L-glutamic acid γ-(3-carboxy-4-nitroanilide) or sulfobutanoyl-p-nitroanilide.

[10] = biological target: T5, EcGGT ΔN24 D433N (Escherichia coli, UniProt P18956, D433N); assay: Colorimetric GGT assay in whole cell lysates; assay type: biochemical, E. coli; settings: whole cell lysate, 4 mM substrate, 50 mM Tris-HCl (pH 9.0), 410 nm
T5 construct: made in house; host or cells: E. coli (pACT3 plasmid); assayed in whole cell lysate
Text: as §6

[11] = biological target: T2, PnGGT ΔN24; assay: Colorimetric GGT assay in whole cell lysates; assay type: biochemical; settings: whole cell lysate, 4 mM substrate, 50 mM Tris-HCl (pH 9.0), 410 nm
Text: as §6

[12] = biological target: T3, PnGGT ΔN24 D405N; assay: Colorimetric GGT assay in whole cell lysates / cell free extracts; assay type: biochemical; settings: cell free extracts of strain TK018, 2 mM substrate (FIG. 22a)
Text: FIG. 22: Identification of GGT* activity and refactoring of the ssuABC operon. […] The release of 4-nitroaniline was quantified by measuring the absorption at 410 nm. (b) Plasmid map of the three-dimensional RBS-library for refactoring the ssuABC operon using 144 RBS variants per gene. RBS library sequences are underlined. Arrows point towards the final RBS sequences observed in plasmid pSsuABC. […] (e) Growth of strain TK088[pSsuABC]transformed with the empty vector pACT3 (black circles) or plasmid pPnGGT* (white circles) in liquid MS minimal medium supplemented with 0.5% glucose, 1 mM MgSO4, 0.4 mM L-leucine, 0.5 mM IPTG, 100 ng ml^−1 aTc and 0.5 mM sulfobutanoyl-L-histidine. Bars and dots from panels (a), (d) and (e) represent the average of three independent measurements with standard deviations shown as error bars.
To test for the desired activity a colorimetric enzyme assay was chosen and the substrate sulfobutanoyl-p-nitroanilide was synthesized for this purpose. Hydrolysis of this colorless substrate by a GGT variant into sulfobutanoic acid and the yellow dye 4-nitroaniline can be quantified photometrically at 410 nm. For that, cytoplasmic GGT variants containing an N-terminal 6×His-tag were first expressed from E. coli (EcGGT ΔN24) and Pseudomonas nitroreducens (PnGGT ΔN24), as well as EcGGT ΔN24 D433N and the corresponding mutant variant PnGGT ΔN24 D405N. […]

SMILES	K value relative to K value with sulfobutanoyl-p-nitroanilide [1]	improvement of Vmax over PnGGT* [2]	increase in Vmax in comparison to PnGGT* [3]	reduction in KM in comparison to PnGGT* [3]	growth with compound as sole sulfur source [4]	growth with compound as leucine source ([5]; expressing EcGGT ΔN24 D433N)	growth with compound as leucine source ([5]; expressing PnGGT ΔN24 D405N)	growth with compound as leucine source ([5]; pACT3 empty vector control)	growth with compound as sole leucine source [6]	Km [7]	Vmax [7]	kcat [7]	Km [8]	Vmax [8]	kcat [8]	hydrolysis of substrate [9]	hydrolysis of substrate [10]	hydrolysis of substrate [11]	reactivity of PnGGT* to substrate [12]
CC(C)C[C@H](NC(=O)CCCS(=O)(=O)O)C(=O)O [sulfobutanoyl-L-leucine]	approximately three times higher	1.55 fold	27%	46%	comparable to growth on other sulfonates; also recorded: comparable efficiencies	slower growth	grows best	weak growth	only grew when cells were synthesizing PnGGT*										
N[C@@H](CCC(=O)Nc1ccc([N+](=O)[O-])c(C(=O)O)c1)C(=O)O [γ-Glu-p-nitroanilide, L-glutamic acid γ-(3-carboxy-4-nitroanilide), reference compound]										0.105 mM	34.94 ± 0.47 µmol/min/mg	34.5 s⁻¹	6.5 mM	1.79 ± 0.61 µmol/min/mg	1.8 s⁻¹	able to hydrolyze	still had detectable activity	able to hydrolyze	no longer possesses significant reactivity
